Measurements taken from PubChem BioAssay (NCI).
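Compound exposure: 48 hours, 5 concentrations, 96-well plates. TGI: concentration producing complete growth inhibition.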

Experiments:
Assay in all cases: growth of human tumour cells (NCI), 48 h
[1] = test system: SK-MEL-28 melanoma
[2] = test system: MOLT-4 leukemia
[3] = test system: OVCAR-8 ovarian
[4] = test system: HL-60(TB) leukemia
[5] = test system: OVCAR-5 ovarian
[6] = test system: NCI/ADR-RES ovarian
[7] = test system: SN12C renal
[8] = test system: BT-549 breast
[9] = test system: SF-268 CNS
[10] = test system: RPMI-8226 leukemia
[11] = test system: NCI-H460 lung
[12] = test system: K-562 leukemia
[13] = test system: SNB-75 CNS
[14] = test system: HS 578T breast
[15] = test system: MDA-MB-231 breast
[16] = test system: UO-31 renal
[17] = test system: CCRF-CEM leukemia

| SMILES | TGI [1] [µM] | TGI [2] [µM] | TGI [3] [µM] | TGI [4] [µM] | TGI [5] [µM] | TGI [6] [µM] | TGI [7] [µM] | TGI [8] [µM] | TGI [9] [µM] | TGI [10] [µM] | TGI [11] [µM] | TGI [12] [µM] | TGI [13] [µM] | TGI [14] [µM] | TGI [15] [µM] | TGI [16] [µM] | TGI [17] [µM] |
| --- | --- | --- | --- | --- | --- | --- | --- | --- | --- | --- | --- | --- | --- | --- | --- | --- | --- |
| O=C(c1ccccc1)c1ccc(N2C(=O)/C(=C/c3cccc([N+](=O)[O-])c3)N=C2c2ccccc2)c(N2C(=O)/C(=C/c3cccc([N+](=O)[O-])c3)N=C2c2ccccc2)c1 | > 100 | > 100 | > 100 | 15.8 | > 100 | > 100 | > 100 | > 100 | > 100 | > 100 | > 100 | > 100 | 81.6 | > 100 | > 100 | > 100 |  |
| O=c1[nH]ncc2[nH]c(-c3ccccc3)cc12 |  | > 100 | > 100 | > 100 | > 100 | 69 | > 100 | > 100 | > 100 | > 100 | > 100 | > 100 | 77 |  | > 100 | > 100 | > 100 |
| CNC(=S)N/N=C(\C)c1cc(OC)c(OC)cc1O | > 100 | > 100 | > 100 | > 100 | > 100 | > 100 | > 100 | > 100 | > 100 | > 100 | > 100 | > 100 | > 100 |  | > 100 | > 100 | > 100 |
| COc1cc(C2SC(N)=Nc3c2c(C)nn3C(=O)Cc2ccccc2)cc(OC)c1OC (configuration not stated) | > 100 | > 100 | > 100 | > 100 |  |  | > 100 | > 100 | > 100 | > 100 | > 100 | > 100 | > 100 | > 100 | > 100 | > 100 | > 100 |
| COc1ccc2cc(NC(=O)Nn3cnnc3)ccc2c1 | > 100 | > 100 | > 100 | > 100 | > 100 |  |  | > 100 | > 100 | > 100 | > 100 | > 100 | > 100 | > 100 | > 100 | > 100 | > 100 |
| CCOC(=O)C(CC(C)C)NC(=O)C(N)Cc1ccc(N(CCCl)CCCl)cc1 (configuration not stated) | 13.7 | 1.68 | 24.9 | 2.51 | 33.7 |  | 19.7 | 46 | 16.8 | > 64.7 | 0.426 | 41.6 | 15.9 | 44.5 | 32.3 | 5.97 | 13 |
| COc1ccccc1NC(=S)NNC(=O)c1cc(-c2ccccc2)nc2ccccc12 | 62 | 26.5 | 49 |  | 47 | 63.5 | 41.5 | 63.8 | 74.8 | 53.6 | 98 | > 100 | 85 | 50.2 | 63.7 | 24.6 | 6.95 |
| COc1cc(S(=O)(=O)Nc2ccc(-c3csc(/N=C\c4ccccc4O)n3)cc2)ccc1Cl | > 100 | 70.3 | > 100 | 98.6 | > 100 | > 100 | > 100 | > 100 | > 100 | > 100 |  | > 100 | > 100 | > 100 | > 100 | > 100 | > 100 |
| CCC1CN2CCc3cc(OC)c(OC)cc3C2CC1CC1c2cc(OC)c(OC)cc2CCN1C(=O)C(Cc1c[nH]c2ccccc12)NC(=O)OC(C)(C)C (configuration not stated) | 4.31 | 8.07 | 8.58 | 3.8 | 16.7 | 3.02 | 8.7 | 7.83 | 15.9 | 6.15 | 7.15 | > 33.9 | 10.8 |  | 3.66 | 7.77 | 15.7 |
| Cc1c(/C=N/NC(=S)Nc2ccc([N+](=O)[O-])cc2)c(=O)n(-c2ccccc2)n1C | > 100 | > 100 | 31.6 | > 100 |  | 32.1 |  | 36.5 | 26.7 | > 100 |  | > 100 | 26.3 | 42.2 | 49.2 | 49.2 | > 100 |
| CCOc1ccc(-n2c(=O)c3nn4c(=O)n(-c5ccc(OCC)cc5)c(=O)c4nn3c2=O)cc1 | > 100 | > 100 | > 100 | > 100 | > 100 | > 100 | > 100 | > 100 | > 100 | > 100 | > 100 | > 100 | 75.7 | > 100 | > 100 | > 100 |  |
| CCN(CC)CCOc1ccc(N2Cc3cc(OC)c(OC)cc3C2=O)cc1 | > 100 | > 100 | > 100 | > 100 | > 100 | > 100 | > 100 | > 100 | > 100 | > 100 | > 100 | > 100 |  | > 100 | > 100 |  | > 100 |
| Cc1ccc(C2=NN=C3C(c4ccccc4)=Nc4ccccc4N3C2)cc1 | > 100 | > 35.5 | > 100 | 9.64 | 99.6 | > 100 | > 100 | > 100 | > 49.4 | > 73 | 18.6 | > 100 |  | 40 | > 100 | > 42 |  |
| C/C(=N/NC(=S)Nc1ccccc1C)c1ccccn1 | 23.1 | 2.08 | 9.32 |  | 10.7 | 8.62 | 6.51 | 16 | 30.9 | > 55.8 | 7.61 | 3.4 | 16.3 | 65.3 | 14.9 | 15.6 | 14.4 |
